In article PMC3821045 (Synapse (New York, N.Y.), 2010):
“Also recorded” adds a separate entry of the source.

What was measured:
Assay type in all cases: cell-based
[1] = target: human D3 dopamine receptors (Homo sapiens, UniProt P35462); assay: Forskolin-dependent adenylyl cyclase inhibition assay
[2] = target: human D2 receptors expressed in CHO cells (Homo sapiens, UniProt P14416); assay: Mitogenic assay; details: relative to quinpirole
[3] = target: human D3 receptors expressed in CHO cells (Homo sapiens, UniProt P35462); assay: Mitogenic assay; details: relative to quinpirole
[4] = target: human D2 dopamine receptors (Homo sapiens, UniProt P14416); assay: Forskolin-dependent adenylyl cyclase inhibition assay
human D2 dopamine receptors, sequence (P14416 whole entry): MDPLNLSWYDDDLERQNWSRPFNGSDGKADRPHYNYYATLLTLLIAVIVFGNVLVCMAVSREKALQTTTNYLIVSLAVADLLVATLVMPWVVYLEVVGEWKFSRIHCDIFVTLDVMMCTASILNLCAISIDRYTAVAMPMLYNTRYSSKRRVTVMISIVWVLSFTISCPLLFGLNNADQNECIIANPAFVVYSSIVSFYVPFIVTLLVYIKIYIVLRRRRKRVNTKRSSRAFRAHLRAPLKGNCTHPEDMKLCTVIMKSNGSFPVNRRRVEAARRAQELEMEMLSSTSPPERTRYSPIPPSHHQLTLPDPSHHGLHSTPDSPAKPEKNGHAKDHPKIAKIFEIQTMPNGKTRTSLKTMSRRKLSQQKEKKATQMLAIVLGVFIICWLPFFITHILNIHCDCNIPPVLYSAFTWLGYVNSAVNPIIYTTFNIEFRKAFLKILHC

human D3 receptors expressed in CHO cells, sequence (P35462 whole entry): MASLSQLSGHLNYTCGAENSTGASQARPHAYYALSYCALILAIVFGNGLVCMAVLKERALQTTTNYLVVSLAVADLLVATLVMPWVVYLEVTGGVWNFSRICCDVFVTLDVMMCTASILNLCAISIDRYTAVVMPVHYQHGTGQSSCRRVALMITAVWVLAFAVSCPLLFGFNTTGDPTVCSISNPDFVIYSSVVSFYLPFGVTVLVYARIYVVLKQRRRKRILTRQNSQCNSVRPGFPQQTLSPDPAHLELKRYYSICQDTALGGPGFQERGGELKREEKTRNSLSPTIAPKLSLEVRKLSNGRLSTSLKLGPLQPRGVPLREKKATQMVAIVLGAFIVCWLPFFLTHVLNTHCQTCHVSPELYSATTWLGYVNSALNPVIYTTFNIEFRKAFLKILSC
human D3 dopamine receptors, sequence (P35462 whole entry): as above
human D2 receptors expressed in CHO cells, sequence (P14416 whole entry): as the sequence (P14416 whole entry) above

| efficacy in adenylyl cyclase inhibition assay (in words) [1] | intrinsic efficacy in mitogenic assay (in words) [2] | intrinsic efficacy in mitogenic assay (in words) [3] | efficacy in adenylyl cyclase inhibition assay (in words) [4] | SMILES |
| --- | --- | --- | --- | --- |
| antagonist |  | antagonist |  | O=C(NCCCCN1CCN(c2cccc(Cl)c2Cl)CC1)c1ccc2c(c1)Cc1ccccc1-2 [NGB 2904, reference compound] |
| greatest efficacy | antagonist | antagonist |  | COc1ccccc1N1CCN(CCCCNC(=O)c2ccc(-c3cccnc3)cc2)CC1 [PG 848, N-(4-(4-(2-methoxyphenyl)piperazin-1-yl)butyl)-4-(pyridin-3-yl)benzamide] |

The remaining lines, values behind:

| SMILES | efficacy in adenylyl cyclase inhibition assay (in words) [1] | intrinsic efficacy in mitogenic assay (in words) [2] | intrinsic efficacy in mitogenic assay (in words) [3] | efficacy in adenylyl cyclase inhibition assay (in words) [4] |
| --- | --- | --- | --- | --- |
| O=C(NCCCCN1CCN(c2cccc(Cl)c2Cl)CC1)c1ccc(-c2ccccn2)cc1 [CJB090, N-(4-(4-(2,3-dichlorophenyl)piperazin-1-yl)butyl)-4-(pyridin-2-yl)benzamide] | partial agonist | some activity | partial agonist; also recorded: some activity | partial agonist |
| O=C(NCCCCN1CCN(c2cccc(Cl)c2Cl)CC1)c1ccc(-c2cccnc2)cc1 [PG01042, N-(4-(4-(2,3-dichlorophenyl)piperazin-1-yl)butyl)-4-(pyridin-3-yl)benzamide] | strong agonist; also recorded: almost full agonist | partial mitogenic agonist | partial mitogenic agonist | weak partial agonist |
| COc1ccccc1N1CCN(C/C=C/CNC(=O)c2ccc(-c3cccnc3)cc2)CC1 [PG 845, (E)-N-(4-(4-(2-methoxyphenyl)piperazin-1-yl)but-2-enyl)-4-(pyridin-3-yl)benzamide] | greatest efficacy |  |  |  |
